The source of these data is patent US7592344B2, “NK1 and NK2-antagonists and compositions and methods of using the same” (Solvay Pharmaceuticals GmbH, priority 2005, dated 2009).

One data set deals with T1, NK1 receptors (Cavia porcellus, UniProt P30547).
T1 construct: from tissue; host or cells: whole animal: anesthetized Pirbright-White guinea pigs
Nature of the data set: NK1-receptor-antagonistic effectiveness in vivo in anesthetized guinea pigs (NKA-induced early hypotension). The note with it: guinea pig. The text has this:
(§1) 6. Determination of the NK1- and NK2-receptor-antagonistic Effectiveness of the Test Substances In Vivo
(§2) The NK1- and NK2-antagonistic activities of the test substances were investigated in anesthetized guinea pigs in each case after intravenous (=i.v.) and oral (=p.o.) administration in vivo. With the present test model it is possible to detect both NK2-antagonistic effects in three different organ systems (respiratory tracts, colon and circulation) and NK1-antagonistic effects (rapid drop in blood pressure) in an animal simultaneously.
Pirbright-White guinea pigs having a body weight of 500-700 g were anesthetized with ketamine/xylazine (67/13 mg/kg subcutaneously, initial dose, further doses administered as required). […] The animals were artificially ventilated via a tracheal cannula and the respiratory pressure was recorded by a pressure transducer. […] Blood pressure, heart rate, respiratory pressure and colonic pressure were measured continuously for each animal and plotted on a recorder and by a digital data-processing system. […]
(§3) The antagonistic effects of the test substances were then determined as “area under the curve” (“AUC”) over the investigation period after administration of the test substances (1-180 min after administration) and the ED50 values after oral administration obtained therefrom were plotted in Table 7.

The next data set has as its target T2, NK2 receptors (Cavia porcellus, UniProt Q64077).
T2 construct: from tissue; host or cells: whole animal: anesthetized Pirbright-White guinea pigs
T2 sequence (Q64077 1-402): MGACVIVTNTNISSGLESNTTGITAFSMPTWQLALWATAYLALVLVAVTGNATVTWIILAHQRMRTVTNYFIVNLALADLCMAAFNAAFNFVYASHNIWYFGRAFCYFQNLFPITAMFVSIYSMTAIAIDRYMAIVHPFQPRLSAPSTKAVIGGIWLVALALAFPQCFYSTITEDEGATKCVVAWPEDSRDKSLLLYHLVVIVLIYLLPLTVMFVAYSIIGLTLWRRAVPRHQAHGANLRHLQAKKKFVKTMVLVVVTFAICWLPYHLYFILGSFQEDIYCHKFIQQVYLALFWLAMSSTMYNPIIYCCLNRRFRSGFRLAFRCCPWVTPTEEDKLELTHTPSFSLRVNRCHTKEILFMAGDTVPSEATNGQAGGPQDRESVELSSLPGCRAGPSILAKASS
Nature of the data set: NK2-receptor-antagonistic effectiveness in vivo in anesthetized guinea pigs (NKA-induced late hypotension, bronchoconstriction, colonic motility). The note with it: guinea pig.
Source text: as §1, §2
Pirbright-White guinea pigs having a body weight of 500-700 g were anesthetized with ketamine/xylazine (67/13 mg/kg subcutaneously, initial dose, further doses administered as required). The animals were provided with an intravenous catheter in order to administer the substance and an intra-arterial catheter to measure the blood pressure. The animals were artificially ventilated via a tracheal cannula and the respiratory pressure was recorded by a pressure transducer. A balloon was introduced into the distal colon of the animals for manometric recording of colon motility by a pressure transducer. Blood pressure, heart rate, respiratory pressure and colonic pressure were measured continuously for each animal and plotted on a recorder and by a digital data-processing system. […] The second phase of delayed hypotension (=phase of maximum hypotension after 2-5 min.) on the other hand is mediated via NK2 receptors, since they can be blocked by specific NK2 receptor antagonists.
These ED50 values obtained from cumulative dose effect curves are plotted in Table 6.
as §3

Data set [1] has as its target T3, human NK2 receptor (Homo sapiens, UniProt P21452).
T3 sequence (P21452 1-398): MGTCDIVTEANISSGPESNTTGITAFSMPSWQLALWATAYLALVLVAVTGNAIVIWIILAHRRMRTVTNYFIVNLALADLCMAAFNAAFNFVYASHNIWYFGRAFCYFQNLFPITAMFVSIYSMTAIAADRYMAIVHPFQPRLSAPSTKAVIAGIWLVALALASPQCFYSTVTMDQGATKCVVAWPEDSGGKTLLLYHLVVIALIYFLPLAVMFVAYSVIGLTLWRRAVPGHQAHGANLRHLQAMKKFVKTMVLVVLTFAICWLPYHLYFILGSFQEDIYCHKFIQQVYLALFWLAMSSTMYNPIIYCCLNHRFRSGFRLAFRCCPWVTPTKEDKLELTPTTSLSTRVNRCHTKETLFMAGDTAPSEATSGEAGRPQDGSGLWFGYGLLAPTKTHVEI
Nature of the data set: Functional cellular test, Ca2+ measurement using FLIPR, NK2 (NKA stimulated CHO cells).
Protocol: (§4) Functional Cellular Tests of the NK1- and NK2-antagonistic Effects
(§5) Functional cellular tests of the antagonistic effect of the compounds of the present invention on the human tachykinin receptors were performed in CHO cells expressing the recombinant human NK1 or NK2 receptor. In these tests the inhibition of ligand induced increase in mobilization of intracellular calcium and the inhibition of ligand induced phosphorylation of MAPK were determined, which can be used as a measure of functional activity of tachykinin-antagonists. Additionally, the antagonistic properties of reference compounds on the different tachykinin receptors were characterized for comparison.
(§6) The effects of test compounds were assessed using Chinese hamster ovary (CHO) fibroblast cells, stably expressing cloned human NK1 or NK2 receptors. The NK receptor in coupled to Gq. The activation of the Gq protein by ligand binding to the receptor leads to a mobilization of intracellular calcium and phosphorylation of MAPK. Both systems were used to determine functional effects of the test compounds.
(§7) Ca^2+Measurements Using FLIPR for NK1 and NK2 Activity
(§8) For tests, cell were seeded 24 hours prior to the experiment into black 96-well microplates. The cell density was 2.2×10^4 cells/well. All steps were done under sterile conditions. In order to observe changes in intracellular calcium levels, cells were loaded with a calcium-sensitive dye. This dye (FLUO-4, from Molecular Probes) excites at 488 nm, and emits in the 560 nm range, only if a complex with calcium is formed. For the dye loading the growth-medium was aspirated out of the well without disturbing the confluent cell layer and 100 μl loading medium (HBSS, 4 μM FLUO-4, 0.005% (w/v) pluronic acid, 2.5 mM probenecid, 20 mM HEPES, pH 7.4) was dispensed into each well using an automatic pipettor system (Multidrop, Labsystems). Pluronic acid was added to increase dye solubility and dye uptake into the cells, whereas probenecid, an anion exchange inhibitor, was added to the loading medium to increase dye retention in the cells. The cells were incubated in a 5% CO2 incubator at 37° C. for 40 minutes. After dye loading, the cells were washed three times with wash-buffer (HBSS, 2.5 mM probenecid, 20 mM HEPES, pH 7.4) to reduce basal fluorescence. In the last washing step the buffer was aspirated and replaced with 100 μl washing buffer. […] The FLIPR setup parameters were set to 0.4 sec exposure length, filter 1, 50 μl fluid addition, pipettor height at 125 μl, dispense speed 40 μl/sec without mixing. Maximal fluorescence changes were obtained using the statistic function of the FLIPR software, and data plotted using GraphPad Prism 4. All points were expressed as a percentage inhibition of the control agonist. IC50 values were determined using sigmoidal dose-response curve fitting.

Data set [2] addresses T4, human NK1 receptor (Homo sapiens, UniProt P25103). Nature of the data set: Functional cellular test, Ca2+ measurement using FLIPR, NK1 (substance P stimulated CHO cells).
Protocol: as §4, §5, §6, §7, §8
The target in data set [3] is T4, human NK1 receptor. Nature of the data set: Binding power to NK1 receptors in vitro ([3H]-Substance P displacement, CHO cell membranes). The arrangement: expressed in transfected cells; host or cells: CHO cells (membrane preparation). The note with it: human NK1 receptor in CHO membranes, ligand [3H]-Substance P; for Ki: read-out: pKi (NK1) (converted). As to the method:
1. Determination of the Binding Power of the Test Substances to NK1 Receptors In Vitro.
Affinity of the test substances to human NK1 receptors was measured in vitro.
The receptor binding studies were performed with [^3H]-Substance P as ligand. For the binding test, different samples of a membrane preparation of CHO cells (=egg cells of the Chinese hamster, […]), which express the human NK1 receptor (“Accession Number” of the associated nucleic acid sequence=M74290; “Accession Number” of the associated protein sequence=P25103; cf. Takeda, Y.; Chou, K. B., Takeda, J.; Sachais, B. S. and Krause, J. E; Biochemical and Biophysical Research Communications, 179(3) (1991) 1232-1240), were incubated with a solution of the marked ligand, with the incubation mixtures containing no test substance or additions of different concentration of test substance. Then, separation of bound and free ligands was performed in each of the samples with the aid of glass-fiber filtration. The fraction remaining in the filter was washed several times with buffer solution and then the radioactivity of the fraction remaining in the filter was measured using a beta scintillation counter.
For the compounds of Examples 1 to 14, that concentration which effects half maximum displacement of the bound ligand was determined as IC50 of the respective test substance. From this, the corresponding inhibition constant (Ki value) of the test substance was calculated, and was stated as the negative common logarithm of the Ki value (=pKi value) The pKi value is a measurement of the affinity of the test substances to human NK1 receptors.

Data set [4] deals with T3, human NK2 receptor. Nature of the data set: Binding power to NK2 receptors in vitro ([3H]-SR 48968 displacement, CHO cell membranes). Set-up: expressed in transfected cells; host or cells: CHO cells (membrane preparation). The note with it: human NK2 receptor in CHO membranes, ligand [3H]-SR 48968, 90 min incubation; for Ki: read-out: pKi (NK2) (converted). As to the method: The affinity of the test substances to human NK2 receptors was measured in vitro. The ability of the test substances to displace the selective NK2 receptor antagonist SR 48968 (=saredutant) used as reference ligand from its corresponding bond was determined.
The receptor binding studies were carried out with radioactively marked [^3H]-SR 48968 (from Amersham) as ligand. For the binding test, different samples of a membrane preparation of CHO cells (=egg cells of the Chinese hamster, […]), which express the human NK2 receptor (for preparation, see N. P. Gerard et al., Journal of Biological Chemistry 265/33 (1990) 20455-20462), were incubated for 90 minutes (=min.) with a solution of the marked ligand, with the incubation mixtures containing no test substance or additions of different concentrations of test substance. Then in each case the membrane-bound ligands in the samples were separated from free ligands by filtration. The fraction remaining in the filter was washed several times with buffer solution, before its radioactivity was measured using a liquid scintillation counter. That concentration which effects half-maximum displacement of the bound reference ligand was determined as IC50 of the respective test substance. The inhibition constant (Ki value) of the test substance was calculated from the respective IC50 value, and was stated as the negative logarithmized value thereof (pKi).
If several measurements were performed, the average thereof was listed each time. The pKi value is a measurement of the affinity of the test substances to human NK2 receptors.

[5] abbreviates: i.v., NKA stimulus 1 min after dosing.

T4 sequence (P25103 whole entry): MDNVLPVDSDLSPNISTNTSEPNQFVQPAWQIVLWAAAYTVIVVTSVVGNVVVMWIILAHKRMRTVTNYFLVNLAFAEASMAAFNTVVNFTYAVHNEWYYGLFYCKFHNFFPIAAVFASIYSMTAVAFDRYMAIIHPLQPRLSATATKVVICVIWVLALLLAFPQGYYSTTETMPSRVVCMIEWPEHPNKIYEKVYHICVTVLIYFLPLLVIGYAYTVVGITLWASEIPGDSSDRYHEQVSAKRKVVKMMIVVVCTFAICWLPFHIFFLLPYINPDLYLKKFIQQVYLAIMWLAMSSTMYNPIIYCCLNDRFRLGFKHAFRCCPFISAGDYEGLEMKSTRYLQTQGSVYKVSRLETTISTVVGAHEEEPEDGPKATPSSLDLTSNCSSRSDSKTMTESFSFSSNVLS
T1 sequence (P30547 whole entry): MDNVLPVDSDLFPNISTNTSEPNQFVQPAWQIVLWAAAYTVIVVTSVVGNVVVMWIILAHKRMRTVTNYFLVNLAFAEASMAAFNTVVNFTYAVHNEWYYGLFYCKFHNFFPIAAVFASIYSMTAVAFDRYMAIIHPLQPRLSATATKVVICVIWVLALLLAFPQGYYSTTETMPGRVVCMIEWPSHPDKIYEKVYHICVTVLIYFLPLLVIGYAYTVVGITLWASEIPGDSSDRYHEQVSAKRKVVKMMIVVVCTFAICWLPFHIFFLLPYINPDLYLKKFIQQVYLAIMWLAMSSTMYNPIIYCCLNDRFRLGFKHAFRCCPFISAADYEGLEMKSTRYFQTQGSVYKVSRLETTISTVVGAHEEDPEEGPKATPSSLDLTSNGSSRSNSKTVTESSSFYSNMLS

As a reminder, the melting point is the temperature of the solid-liquid transition. Turning to `CN(C[C@@H](CCN1CCN([C@@H](c2ccco2)[C@H](O)CO)CC1)c1ccc(Cl)c(Cl)c1)C(=O)c1cc(C#N)cc2ccccc12` [Compound 1, 3-cyano-N-[(2S)-2-(3,4-dichlorophenyl)-4-{4-[(1R,2S)-1-(2-furyl)-2,3-dihydroxy-propyl]-piperazin-1-yl}butyl]-N-methyl-1-naphthamide], the melting point lay within 140 to 142 °C. For the same molecule, the “oral activity as NK1 receptor antagonist (in words)” value on NK1 receptors (oral) is “active orally”. Besides, the “oral activity as NK2 receptor antagonist (in words)” value at NK2 receptors (oral) is recorded as “active orally”.

In the case of `CN(CC(CCN1CCN(C(c2ccco2)C(O)C(O)CO)CC1)c1ccc(Cl)c(Cl)c1)C(=O)c1cc(C#N)cc2ccccc12` (stereo not shown) [Compound 7], at human NK2 receptor [1] (CHO cells with human NK2 receptor, FLIPR Ca2+, NKA 10^-7 M), the “pA2 (NK2)” value is 8.1. The “ED50 iv after 1 min (cumulative), NK1 (early hypotension)” value on NK1 receptors (setting [5]) came out at 0.052 µmol/kg. In addition, the “pA2 (NK1)” value at human NK1 receptor [2] (CHO cells with human NK1 receptor, FLIPR Ca2+, substance P 10^-8 M) amounted to 8.8. Moreover, at NK2 receptors (setting [5]), the “ED50 iv after 1 min (cumulative), NK2 (bronchoconstriction)” value turned out to be 0.207 µmol/kg; the “ED50 iv after 1 min (cumulative), NK2 (colonic motility)” value stood at 0.309 µmol/kg; the “ED50 iv after 1 min (cumulative), NK2 (late hypotension)” value came out at 0.338 µmol/kg. The “pKi (NK1)” value on human NK1 receptor [3] came out at 8.3. In addition, on human NK2 receptor [4], the “pKi (NK2)” value was determined as 7.4.

Take `CN(C[C@@H](CCN1CCN([C@@H](c2cccs2)[C@H](O)CO)CC1)c1ccc(Cl)c(Cl)c1)C(=O)c1cc(C#N)cc2ccccc12` [Compound 9, 3-cyano-N-[(2S)-2-(3,4-dichlorophenyl)-4-{4-[(1R,2S)-2,3-dihydroxy-1-(2-thienyl)propyl]piperazin-1-yl}butyl]-N-methyl-1-naphthamide]: the Kb on human NK2 receptor [1] is 10 nM.

For `COc1ccc([C@@H]([C@H](O)CO)N2CCN(CC[C@H](CN(C)C(=O)c3cc(C#N)cc4ccccc34)c3ccc(Cl)c(Cl)c3)CC2)cc1` [Compound 16, 3-cyano-N-[(2)-2-(3,4-dichlorophenyl)-4-{4-[(1S,2S)-2,3-dihydroxy-1-(4-methoxyphenyl)propyl]piperazin-1-yl}butyl]-N-methyl-1-naphthamide], the Kb at human NK2 receptor [1] is 0.794 nM; at human NK1 receptor [2], 0.501 nM. The Ki at human NK1 receptor [3] was 1 nM; at human NK2 receptor [4], 794 nM.

As to `CN(CC(CCN1CCN(C(Cc2ccccc2)C(O)CO)CC1)c1ccc(Cl)c(Cl)c1)C(=O)c1cc(C#N)cc2ccccc12` (stereo not shown) [Compound 24], the Kb on human NK2 receptor [1] was 15.8 nM; at human NK1 receptor [2], 7.94 nM. Besides, the Ki at human NK1 receptor [3] is 10 nM; at human NK2 receptor [4] it was 31.6 nM.

Consider `CC(=O)OCC(O)C(Cc1ccccc1)N1CCN(CCC(CN(C)C(=O)c2cc(C#N)cc3ccccc23)c2ccc(Cl)c(Cl)c2)CC1` (stereo not shown) [Compound 26], for which the Kb at human NK2 receptor [1] is 39.8 nM; at human NK1 receptor [2], 10 nM. For the same molecule, the Ki on human NK1 receptor [3] is 7.94 nM; at human NK2 receptor [4], 100 nM.

Take `CC(=O)OC[C@@H](OC(C)=O)[C@H](c1ccco1)N1CCN(CC[C@H](CN(C)C(=O)c2cc(C#N)cc3ccccc23)c2ccc(Cl)c(Cl)c2)CC1` [Compound 27, (2S,3R)-2-(acetyloxy)-3-{4-[(3S)-4-[3-cyano-1-naphthoyl)(methyl)amino]-3-(3,4-dichlorophenyl)butyl]piperazin-1-yl}-3-(2-furyl)propyl acetate]: the Kb at human NK2 receptor [1] was 7.94 nM; at human NK1 receptor [2], 0.631 nM. Further, the figures for the Ki at human NK1 receptor [3] and at human NK2 receptor [4] were 6.31 nM and 25.1 nM, respectively.
